The values that follow come from patent US11447460B2, “Compounds and compositions for treating conditions associated with NLRP activity” (Novartis AG, priority 2016, dated 2022).

A word on the IC50: it is the concentration that gives 50% inhibition.

The assay concerns IL-1β production in PMA-differentiated THP-1 cells. Nature of the assay: IL-1β production in PMA-differentiated THP-1 cells stimulated with gramicidin (hTHP-1 assay, 2% bovine serum; Bioassays 1 and 2). Type of assay: cell-based, human. As to conditions: hTHP-1 assay containing 2% bovine serum, Table 12, by Example #, read-out: Average IC50 of compounds in hTHP-1 assay. Here is the method:
IL-1β Production in PMA-Differentiated THP-1 Cells Stimulated with Gramicidin.
Cell culture-THP-1 cells were purchased from the American Type Culture Collection and sub-cultured according to instructions from the supplier. Prior to experiments, cells were cultured in RPMI 1640 containing 10% heat inactivated FBS, penicillin (100 units/ml) and streptomycin (100 μg/ml), and maintained in log phase prior to experimental setup. Prior to the experiment THP-1 were treated with PMA (Phorbol 12-myristate 13-acetate) (10 μg/ml) for 24 hours. The day of the experiment the media was removed and attaching cells were treated with trypsin for 2 minutes, cells were then collected, washed with PBS (phosphate buffer saline), spin down, resuspended in 2% heat inactivated FBS with RPMI at a concentration of 1×10^6 cells/ml, and 100 ul was plated in a 96 well plate. Cells were incubated with compounds for 1 hours and then stimulated with Gramicidin (5 μM) (Enzo) for 2 hours. Cell free supernatant was collected and the production of IL-1β was evaluated by ELISA. Compounds were dissolved in dimethyl sulfoxide (DMSO) and added to the culture medium to achieve desired concentration (e.g. 100, 30, 10, 3, 1, 0.3 or 0.1 μM). A vehicle only control was run concurrently with each experiment. Final DMSO concentration was 1%.
THP-1 cells were purchased from the American Type Culture Collection and sub-cultured according to instructions from the supplier. Prior to experiments, cells were cultured in complete RPMI 1640 (containing 10% heat inactivated FBS, penicillin (100 units/ml) and streptomycin (100 μg/ml)), and maintained in log phase prior to experimental setup. Prior to the experiment THP-1 were treated with PMA (Phorbol 12-myristate 13-acetate) (20 ng/ml) for 16-18 hours. On the day of the experiment the media was removed and adherent cells were detached with trypsin for 5 minutes. Cells were then harvested, washed with complete RPMI 1640, spun down, resuspended in RPMI 1640 (containing 2% heat inactivated FBS, penicillin (100 units/ml) and streptomycin (100 μg/ml). The cells were plated in a 384-well plate at a density of 50,000 cells/well (final assay volume 50 μl). Compounds were dissolved in dimethyl sulfoxide (DMSO) and added to the culture medium to achieve desired concentration (e.g. 100, 33, 11, 3.7, 1.2, 0.41, 0.14, 0.046, 0.015, 0.0051, 0.0017 μM). Cells were incubated with compounds for 1 hour and then stimulated with gramicidin (5 μM) (Enzo) for 2 hours. Cell free supernatant was collected and the production of IL-10 was evaluated by HTRF (cisbio). A vehicle only control was run concurrently with each experiment. Final DMSO concentration was 0.38%.
Compounds tested with protocols 1 and 2 provided IC50 values that are within the variability of the assay.
Tables 12 and 13 show the biological activity of compounds in hTHP-1 assay containing 2% bovine serum: <1 μM=“++++”; ≥1 and <5 μM=“+++”; ≥5 and <15 μM=“++”; ≥15 and <60 μM=“+”.

Where two headings read alike, the source gives them in different places.

`CC(C)c1cc(F)cc(C(C)C)c1CC(=O)NS(=O)(=O)c1cc(N2CCOCC2)cc(C(C)(C)O)c1` [Example 38, 2-(4-fluoro-2,6-diisopropylphenyl)-N-(3-(2-hydroxypropan-2-yl)-5-morpholinophenylsulfonyl)acetamide]: where the note is “Homo sapiens, THP-1”, the concentration for half-maximal inhibition (IC50) fell in the range of 5 to 15 µM.

Take `CC(C)c1cc(F)cc(C(C)C)c1CC(=O)NS(=O)(=O)c1ccc(S(F)(F)(F)(F)F)cc1` [Example 39]: the 50% inhibitory concentration (IC50) is 15 to 60 µM.

Take `CC(C)c1cc(F)cc(C(C)C)c1CC(=O)NS(=O)(=O)c1cnc2ccccc2c1` [Example 40, 2-(4-fluoro-2,6-diisopropylphenyl)-N-(quinolin-3-ylsulfonyl)acetamide]: for the setting “Homo sapiens, THP-1”, the IC50 is 15 to 60 µM.

On to `CC(C)c1cc(F)cc(C(C)C)c1CC(=O)NS(=O)(=O)c1cc2ccccc2o1` [Example 41, N-(benzofuran-2-ylsulfonyl)-2-(4-fluoro-2,6-diisopropylphenyl)acetamide], for which the half-maximal inhibitory concentration (IC50) (Homo sapiens, THP-1) is 5 to 15 µM.

For `CC(C)c1ccc(F)c(C(C)C)c1CC(=O)NS(=O)(=O)c1cccc(C(C)(C)O)c1` [Example 42, 2-(3-fluoro-2,6-diisopropylphenyl)-N-(3-(2-hydroxypropan-2-yl)phenylsulfonyl)acetamide], the half-inhibitory concentration (IC50) (Homo sapiens, THP-1) lay within 5 to 15 µM.

On to `CC(C)c1ccc(F)c(C(C)C)c1CC(=O)NS(=O)(=O)c1ccc(C(C)(C)O)cc1` [Example 43, 2-(3-fluoro-2,6-diisopropylphenyl)-N-(4-(2-hydroxypropan-2-yl)phenylsulfonyl)acetamide], for which the IC50 (Homo sapiens, THP-1) was in the range of 1 to 5 µM.

Turning to `Cc1c(C(C)(C)O)cccc1S(=O)(=O)NC(=O)Cc1c(C(C)C)cc(F)cc1C(C)C` [Example 44, 2-(4-fluoro-2,6-diisopropylphenyl)-N-(3-(2-hydroxypropan-2-yl)-2-methylphenylsulfonyl)acetamide], the IC50 (Homo sapiens, THP-1) was 5 to 15 µM.

Take `Cc1ccc(S(=O)(=O)NC(=O)Cc2c(C(C)C)cc(F)cc2C(C)C)cc1C(C)(C)O` [Example 45, 2-(4-fluoro-2,6-diisopropylphenyl)-N-(3-(2-hydroxypropan-2-yl)-4-methylphenylsulfonyl)acetamide]: the IC50 (Homo sapiens, THP-1) was 1 to 5 µM.

For the compound `Cc1cc(C(C)(C)O)cc(S(=O)(=O)NC(=O)Cc2c(C(C)C)cc(F)cc2C(C)C)c1` [Example 46, 2-(4-fluoro-2,6-diisopropylphenyl)-N-(3-(2-hydroxypropan-2-yl)-5-methylphenylsulfonyl)acetamide], the half-maximal inhibitory concentration (IC50) (Homo sapiens, THP-1) was in the range of 1 to 5 µM.

Take `Cc1cc(S(=O)(=O)NC(=O)Cc2c(C(C)C)cc(F)cc2C(C)C)ccc1C(C)(C)O` [Example 47, 2-(4-fluoro-2,6-diisopropylphenyl)-N-(4-(2-hydroxypropan-2-yl)-3-methylphenylsulfonyl)acetamide]: the IC50 (Homo sapiens, THP-1) lay in the range of 1 to 5 µM.

Regarding `Cc1cc(C(C)(C)O)ccc1S(=O)(=O)NC(=O)Cc1c(C(C)C)cc(F)cc1C(C)C` [Example 48, 2-(4-fluoro-2,6-diisopropylphenyl)-N-(4-(2-hydroxypropan-2-yl)-2-methylphenylsulfonyl)acetamide], under “Homo sapiens, THP-1”, the IC50 was < 1 µM.

In the case of `CC(C)c1cc(F)cc(C(C)C)c1CC(=O)NS(=O)(=O)c1cccc(C(C)(C)O)c1F` [Example 50, 2-(4-fluoro-2,6-diisopropylphenyl)-N-(2-fluoro-3-(2-hydroxypropan-2-yl)phenylsulfonyl)acetamide], the IC50 (Homo sapiens, THP-1) is 1 to 5 µM.

`CC(C)c1cc(F)cc(C(C)C)c1CC(=O)NS(=O)(=O)c1cc(F)cc(C(C)(C)O)c1` [Example 51, 2-(4-fluoro-2,6-diisopropylphenyl)-N-(3-fluoro-5-(2-hydroxypropan-2-yl)phenylsulfonyl)acetamide]: under “Homo sapiens, THP-1”, the half-inhibitory concentration (IC50) was 5 to 15 µM.

Regarding `CC(C)c1cc(F)cc(C(C)C)c1CC(=O)NS(=O)(=O)c1cc(C(C)(C)O)ccc1F` [Example 52, 2-(4-fluoro-2,6-diisopropylphenyl)-N-(2-fluoro-5-(2-hydroxypropan-2-yl)phenylsulfonyl)acetamide], the IC50 (Homo sapiens, THP-1) was in the range of 1 to 5 µM.

Turning to `CC(C)c1cc(F)cc(C(C)C)c1CC(=O)NS(=O)(=O)c1ccc(C(C)(C)O)c(F)c1` [Example 53, 2-(4-fluoro-2,6-diisopropylphenyl)-N-(3-fluoro-4-(2-hydroxypropan-2-yl)phenylsulfonyl)acetamide], the half-inhibitory concentration (IC50) (Homo sapiens, THP-1) was < 1 µM.

On to `CC(C)c1cc(F)cc(C(C)C)c1CC(=O)NS(=O)(=O)c1ccc(C(C)(C)O)cc1F` [Example 54, 2-(4-fluoro-2,6-diisopropylphenyl)-N-(2-fluoro-4-(2-hydroxypropan-2-yl)phenylsulfonyl)acetamide], for which the half-maximal inhibitory concentration (IC50) (Homo sapiens, THP-1) was < 1 µM.

Take `CC(=O)c1ccc(F)c(S(=O)(=O)NC(=O)Cc2c(C(C)C)cc(F)cc2C(C)C)c1` [Example 55]: the IC50 lay in the range of 1 to 5 µM.

On to `CC(C)c1cc(F)cc(C(C)C)c1CC(=O)NS(=O)(=O)c1cc(C2(C)OCCO2)ccc1F` [Example 56, 2-(4-fluoro-2,6-diisopropylphenyl)-N-(2-fluoro-5-(2-methyl-1,3-dioxolan-2-yl)phenylsulfonyl)acetamide], for which the IC50 (Homo sapiens, THP-1) is < 1 µM.

As to `CC1(c2ccc(F)c(S(=O)(=O)NC(=O)Cc3c4c(c(F)c5c3CCC5)CCC4)c2)OCCO1` [Example 57, 2-(8-fluoro-1,2,3,5,6,7-hexahydros-indacen-4-yl)-N-(2-fluoro-5-(2-methyl-1,3-dioxolan-2-yl)phenylsulfonyl)acetamide], the half-inhibitory concentration (IC50) (Homo sapiens, THP-1) lay within 15 to 60 µM.

As to `CC(C)c1cc(F)cc(C(C)C)c1CC(=O)NS(=O)(=O)c1ccc(S(C)(=O)=O)cc1` [Example 58, 2-(4-fluoro-2,6-diisopropylphenyl)-N-(4-(methylsulfonyl)phenylsulfonyl)acetamide], the IC50 (Homo sapiens, THP-1) fell in the range of 1 to 5 µM.

For `CC(C)c1cc(F)cc(C(C)C)c1CC(=O)NS(=O)(=O)c1cccc(S(C)(=O)=O)c1` [Example 59, 2-(4-fluoro-2,6-diisopropylphenyl)-N-(3-(methylsulfonyl)phenylsulfonyl)acetamide], the IC50 (Homo sapiens, THP-1) lay within 15 to 60 µM.

As to `CC(C)c1cc(Cl)cc(C(C)C)c1CC(=O)NS(=O)(=O)c1ccn(C(C)C)n1` [Example 61, 2-(4-chloro-2,6-diisopropylphenyl)-N-(1-isopropyl-1H-pyrazol-3-ylsulfonyl)acetamide], the IC50 (Homo sapiens, THP-1) lay in the range of 5 to 15 µM.

Take `CC(C)c1cc(F)cc(C(C)C)c1CC(=O)NS(=O)(=O)c1ccn(C(C)C)n1` [Example 62, 2-(4-fluoro-2,6-diisopropylphenyl)-N-(1-isopropyl-1H-pyrazol-3-ylsulfonyl)acetamide]: where the note is “Homo sapiens, THP-1”, the IC50 fell in the range of 5 to 15 µM.

For the compound `CC(C)c1cccc(C(C)C)c1CC(=O)NS(=O)(=O)c1cc(C(C)(C)O)n(-c2ccccc2)n1` [Example 63, 2-(2,6-diisopropylphenyl)-N-(5-(2-hydroxypropan-2-yl)-1-phenyl-1H-pyrazol-3-ylsulfonyl)acetamide], the IC50 (Homo sapiens, THP-1) lay in the range of 5 to 15 µM.

For `CC(C)c1cc(F)cc(C(C)C)c1CC(=O)NS(=O)(=O)c1cc(C(C)(C)O)n(-c2ccccc2)n1` [Example 64, 2-(4-fluoro-2,6-diisopropylphenyl)-N-(5-(2-hydroxypropan-2-yl)-1-phenyl-1H-pyrazol-3-ylsulfonyl)acetamide], for the setting “Homo sapiens, THP-1”, the IC50 lay within 1 to 5 µM.

Regarding `CC(C)c1cc(C#N)cc(C(C)C)c1CC(=O)NS(=O)(=O)c1cc(C(C)(C)O)n(-c2ccccc2)n1` [Example 65, 2-(4-cyano-2,6-diisopropylphenyl)-N-(5-(2-hydroxypropan-2-yl)-1-phenyl-1H-pyrazol-3-ylsulfonyl)acetamide], where the note is “Homo sapiens, THP-1”, the concentration for half-maximal inhibition (IC50) is 5 to 15 µM.

As for `CC(C)c1cccc(C(C)C)c1CC(=O)NS(=O)(=O)c1cc(C(C)(C)O)n(C)n1` [Example 66, 2-(2,6-diisopropylphenyl)-N-(5-(2-hydroxypropan-2-yl)-1-methyl-1H-pyrazol-3-ylsulfonyl)acetamide], for the setting “Homo sapiens, THP-1”, the IC50 is 15 to 60 µM.

In the case of `CC(C)c1cc(F)cc(C(C)C)c1CC(=O)NS(=O)(=O)c1cc(C(C)(C)O)n(C)n1` [Example 67, 2-(4-fluoro-2,6-diisopropylphenyl)-N-(5-(2-hydroxypropan-2-yl)-1-methyl-1H-pyrazol-3-ylsulfonyl)acetamide], the IC50 (Homo sapiens, THP-1) fell in the range of 1 to 5 µM.

On to `CC(C)c1cc(C#N)cc(C(C)C)c1CC(=O)NS(=O)(=O)c1cc(C(C)(C)O)n(C)n1` [Example 68, 2-(4-cyano-2,6-diisopropylphenyl)-N-(5-(2-hydroxypropan-2-yl)-1-methyl1H-pyrazol-3-ylsulfonyl)acetamide], for which the 50% inhibitory concentration (IC50) (Homo sapiens, THP-1) is 5 to 15 µM.
